Test results: paper PMC11233931, “Remodeling tumor‐associated macrophage for anti‐cancer effects by rational design of irreversible inhibition of mitogen‐activated protein kinase‐activated protein kinase 2” (MedComm, 2024)

Legend:
Assay in all cases: Eurofins kinase selectivity profile against 380 other human recombinant kinases (Table S2)
Format in all cases: biochemical
[1] = target: T1, 380 human recombinant protein kinases (Homo sapiens, UniProt P42336, E542K); settings: PI3 Kinase (p110α(E542K)/p85α)(h), read-out: Inhibition rate (%)
T1 construct: purchased Eurofins (Celle Lévescault)
Outline: (§1)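 Values come from a contract kinase-profiling service that tested the compound at multiple concentrations across 380 recombinant human kinases, as an off-target check against the MK2 activity.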

[2] = target: T2, 380 human recombinant protein kinases (Homo sapiens, UniProt P50613); settings: CDK7/cyclinH/MAT1(h), read-out: Inhibition rate
T2 construct: purchased Eurofins (Celle Lévescault)
Outline: as §1

[3] = target: T3, 380 human recombinant protein kinases (Homo sapiens, UniProt Q9H2G2); settings: SLK(h), read-out: Inhibition rate (%)
T3 construct: purchased Eurofins (Celle Lévescault)
Outline: as §1

[4] = target: T4, 380 human recombinant protein kinases (Homo sapiens, UniProt P06493); settings: CDK1/cyclinB(h), read-out: Inhibition rate
T4 construct: purchased Eurofins (Celle Lévescault)
Outline: as §1

[5] = target: T5, 380 human recombinant protein kinases (Homo sapiens, UniProt Q9BQI3); settings: HRI(h), read-out: Inhibition rate
T5 construct: purchased Eurofins (Celle Lévescault)
Outline: as §1

[6] = target: T6, 380 human recombinant protein kinases (Homo sapiens, UniProt Q9UKI8); settings: TLK1(h), read-out: Inhibition rate (%)
T6 construct: purchased Eurofins (Celle Lévescault)
T6 sequence (Q9UKI8 1-766): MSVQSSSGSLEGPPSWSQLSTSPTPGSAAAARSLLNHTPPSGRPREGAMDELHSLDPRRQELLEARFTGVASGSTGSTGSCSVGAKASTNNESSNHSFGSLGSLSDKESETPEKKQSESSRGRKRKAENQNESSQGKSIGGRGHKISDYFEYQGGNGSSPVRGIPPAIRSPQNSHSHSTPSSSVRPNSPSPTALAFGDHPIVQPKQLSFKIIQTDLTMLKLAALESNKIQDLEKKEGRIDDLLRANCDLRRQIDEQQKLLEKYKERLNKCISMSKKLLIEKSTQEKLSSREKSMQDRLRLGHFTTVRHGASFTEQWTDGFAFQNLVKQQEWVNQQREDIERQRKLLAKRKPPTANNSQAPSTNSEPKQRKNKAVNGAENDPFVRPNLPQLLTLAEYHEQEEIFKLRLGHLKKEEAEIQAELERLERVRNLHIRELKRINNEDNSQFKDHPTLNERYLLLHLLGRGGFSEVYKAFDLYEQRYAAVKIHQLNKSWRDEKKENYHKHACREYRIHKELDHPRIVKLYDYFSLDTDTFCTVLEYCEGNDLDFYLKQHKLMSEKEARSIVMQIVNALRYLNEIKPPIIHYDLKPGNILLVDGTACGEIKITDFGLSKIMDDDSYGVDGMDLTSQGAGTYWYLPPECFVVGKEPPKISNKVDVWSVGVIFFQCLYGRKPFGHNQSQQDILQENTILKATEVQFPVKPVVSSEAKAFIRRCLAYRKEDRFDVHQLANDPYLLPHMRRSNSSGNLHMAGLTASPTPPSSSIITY
Outline: as §1

[7] = target: T7, 380 human recombinant protein kinases (Homo sapiens, UniProt Q15375); settings: EphA7(h), read-out: Inhibition rate
T7 construct: purchased Eurofins (Celle Lévescault)
Outline: as §1

[8] = target: T8, 380 human recombinant protein kinases (Homo sapiens, UniProt Q9P1W9); settings: Pim-2(h), read-out: Inhibition rate
T8 construct: purchased Eurofins (Celle Lévescault)
Outline: as §1

[9] = target: T9, 380 human recombinant protein kinases (Homo sapiens, UniProt Q8IZX4); settings: TAF1L(h), read-out: Inhibition rate (%)
T9 construct: purchased Eurofins (Celle Lévescault)
Outline: as §1

[10] = target: T10, 380 human recombinant protein kinases (Homo sapiens, UniProt P51955); settings: NEK2(h), read-out: Inhibition rate
T10 construct: purchased Eurofins (Celle Lévescault)
T10 sequence (P51955 1-445): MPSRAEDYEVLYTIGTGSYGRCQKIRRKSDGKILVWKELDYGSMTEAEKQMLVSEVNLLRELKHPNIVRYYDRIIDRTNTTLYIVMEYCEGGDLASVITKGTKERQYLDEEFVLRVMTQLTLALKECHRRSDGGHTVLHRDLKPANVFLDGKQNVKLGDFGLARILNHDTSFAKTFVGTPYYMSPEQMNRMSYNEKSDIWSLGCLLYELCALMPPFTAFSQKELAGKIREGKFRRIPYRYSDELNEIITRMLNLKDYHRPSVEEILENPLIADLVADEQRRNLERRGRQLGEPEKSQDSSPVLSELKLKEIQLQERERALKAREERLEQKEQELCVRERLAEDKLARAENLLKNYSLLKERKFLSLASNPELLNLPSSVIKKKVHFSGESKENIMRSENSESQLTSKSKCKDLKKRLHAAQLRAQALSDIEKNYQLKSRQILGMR
Outline: as §1

T8 sequence (Q9P1W9 whole entry): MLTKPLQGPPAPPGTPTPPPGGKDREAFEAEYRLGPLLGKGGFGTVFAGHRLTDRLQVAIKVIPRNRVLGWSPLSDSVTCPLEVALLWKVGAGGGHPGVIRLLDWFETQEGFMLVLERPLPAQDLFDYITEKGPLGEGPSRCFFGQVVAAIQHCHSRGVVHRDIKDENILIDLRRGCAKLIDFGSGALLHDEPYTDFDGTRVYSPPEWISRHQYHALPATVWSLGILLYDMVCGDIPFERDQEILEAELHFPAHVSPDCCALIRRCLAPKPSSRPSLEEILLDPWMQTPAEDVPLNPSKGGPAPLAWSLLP
T4 sequence (P06493 whole entry): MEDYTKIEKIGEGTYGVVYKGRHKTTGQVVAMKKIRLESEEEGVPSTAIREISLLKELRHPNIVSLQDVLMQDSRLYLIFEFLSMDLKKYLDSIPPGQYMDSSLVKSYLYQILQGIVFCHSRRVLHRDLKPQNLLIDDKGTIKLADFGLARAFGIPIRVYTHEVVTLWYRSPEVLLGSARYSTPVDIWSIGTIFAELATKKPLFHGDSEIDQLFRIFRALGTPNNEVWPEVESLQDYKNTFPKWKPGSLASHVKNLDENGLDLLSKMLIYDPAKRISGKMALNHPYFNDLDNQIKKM
T5 sequence (Q9BQI3 whole entry): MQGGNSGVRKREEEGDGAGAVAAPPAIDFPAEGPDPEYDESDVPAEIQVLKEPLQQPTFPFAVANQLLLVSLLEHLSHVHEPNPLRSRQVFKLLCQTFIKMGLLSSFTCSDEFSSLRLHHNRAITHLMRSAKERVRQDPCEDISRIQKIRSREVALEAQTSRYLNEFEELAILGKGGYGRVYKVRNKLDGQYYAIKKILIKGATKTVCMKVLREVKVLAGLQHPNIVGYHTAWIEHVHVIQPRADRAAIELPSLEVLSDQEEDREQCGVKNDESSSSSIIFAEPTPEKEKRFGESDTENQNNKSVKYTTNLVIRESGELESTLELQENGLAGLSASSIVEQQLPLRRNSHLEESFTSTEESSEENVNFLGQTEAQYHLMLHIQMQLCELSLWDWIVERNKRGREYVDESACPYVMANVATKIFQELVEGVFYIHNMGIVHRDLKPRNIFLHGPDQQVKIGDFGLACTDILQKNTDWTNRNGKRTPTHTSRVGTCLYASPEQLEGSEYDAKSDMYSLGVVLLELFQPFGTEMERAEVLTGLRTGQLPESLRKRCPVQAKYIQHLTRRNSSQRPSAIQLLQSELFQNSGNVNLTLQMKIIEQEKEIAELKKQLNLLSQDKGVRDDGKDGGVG
T2 sequence (P50613 whole entry): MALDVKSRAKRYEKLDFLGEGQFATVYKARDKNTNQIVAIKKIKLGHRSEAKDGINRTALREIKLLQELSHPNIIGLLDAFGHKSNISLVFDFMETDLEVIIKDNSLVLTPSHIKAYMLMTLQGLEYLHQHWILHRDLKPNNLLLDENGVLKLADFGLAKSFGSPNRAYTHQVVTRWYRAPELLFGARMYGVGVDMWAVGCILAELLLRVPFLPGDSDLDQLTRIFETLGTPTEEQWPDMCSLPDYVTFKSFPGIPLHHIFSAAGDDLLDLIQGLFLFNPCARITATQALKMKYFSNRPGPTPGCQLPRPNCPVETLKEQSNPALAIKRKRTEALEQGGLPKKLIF
T1 sequence (P42336 whole entry E542K): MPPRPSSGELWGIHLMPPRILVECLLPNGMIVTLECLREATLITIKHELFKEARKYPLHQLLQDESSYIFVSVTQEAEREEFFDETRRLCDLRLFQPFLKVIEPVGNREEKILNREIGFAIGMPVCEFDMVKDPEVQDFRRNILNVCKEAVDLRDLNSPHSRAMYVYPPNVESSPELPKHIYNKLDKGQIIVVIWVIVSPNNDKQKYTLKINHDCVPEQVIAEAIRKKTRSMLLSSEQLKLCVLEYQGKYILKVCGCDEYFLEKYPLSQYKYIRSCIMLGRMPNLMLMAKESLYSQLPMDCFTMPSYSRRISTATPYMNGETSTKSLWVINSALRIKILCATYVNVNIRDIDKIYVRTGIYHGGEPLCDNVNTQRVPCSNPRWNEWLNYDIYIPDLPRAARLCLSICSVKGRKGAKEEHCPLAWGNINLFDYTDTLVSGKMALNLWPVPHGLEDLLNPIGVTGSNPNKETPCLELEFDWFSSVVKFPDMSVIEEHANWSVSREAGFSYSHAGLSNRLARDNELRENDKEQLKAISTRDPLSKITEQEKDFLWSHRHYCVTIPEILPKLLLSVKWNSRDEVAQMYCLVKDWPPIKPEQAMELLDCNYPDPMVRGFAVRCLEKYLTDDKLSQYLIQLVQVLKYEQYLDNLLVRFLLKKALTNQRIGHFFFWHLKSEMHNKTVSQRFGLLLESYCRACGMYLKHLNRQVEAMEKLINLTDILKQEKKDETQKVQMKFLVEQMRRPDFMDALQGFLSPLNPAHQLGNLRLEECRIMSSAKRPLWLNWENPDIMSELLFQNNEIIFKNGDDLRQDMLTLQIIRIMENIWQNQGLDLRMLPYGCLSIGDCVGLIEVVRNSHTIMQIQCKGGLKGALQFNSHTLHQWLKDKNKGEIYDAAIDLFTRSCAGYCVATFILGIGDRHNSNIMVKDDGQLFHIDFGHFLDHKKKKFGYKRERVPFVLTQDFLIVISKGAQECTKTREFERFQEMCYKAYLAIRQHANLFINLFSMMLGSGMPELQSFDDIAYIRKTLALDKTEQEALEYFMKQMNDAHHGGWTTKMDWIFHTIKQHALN
T3 sequence (Q9H2G2 whole entry): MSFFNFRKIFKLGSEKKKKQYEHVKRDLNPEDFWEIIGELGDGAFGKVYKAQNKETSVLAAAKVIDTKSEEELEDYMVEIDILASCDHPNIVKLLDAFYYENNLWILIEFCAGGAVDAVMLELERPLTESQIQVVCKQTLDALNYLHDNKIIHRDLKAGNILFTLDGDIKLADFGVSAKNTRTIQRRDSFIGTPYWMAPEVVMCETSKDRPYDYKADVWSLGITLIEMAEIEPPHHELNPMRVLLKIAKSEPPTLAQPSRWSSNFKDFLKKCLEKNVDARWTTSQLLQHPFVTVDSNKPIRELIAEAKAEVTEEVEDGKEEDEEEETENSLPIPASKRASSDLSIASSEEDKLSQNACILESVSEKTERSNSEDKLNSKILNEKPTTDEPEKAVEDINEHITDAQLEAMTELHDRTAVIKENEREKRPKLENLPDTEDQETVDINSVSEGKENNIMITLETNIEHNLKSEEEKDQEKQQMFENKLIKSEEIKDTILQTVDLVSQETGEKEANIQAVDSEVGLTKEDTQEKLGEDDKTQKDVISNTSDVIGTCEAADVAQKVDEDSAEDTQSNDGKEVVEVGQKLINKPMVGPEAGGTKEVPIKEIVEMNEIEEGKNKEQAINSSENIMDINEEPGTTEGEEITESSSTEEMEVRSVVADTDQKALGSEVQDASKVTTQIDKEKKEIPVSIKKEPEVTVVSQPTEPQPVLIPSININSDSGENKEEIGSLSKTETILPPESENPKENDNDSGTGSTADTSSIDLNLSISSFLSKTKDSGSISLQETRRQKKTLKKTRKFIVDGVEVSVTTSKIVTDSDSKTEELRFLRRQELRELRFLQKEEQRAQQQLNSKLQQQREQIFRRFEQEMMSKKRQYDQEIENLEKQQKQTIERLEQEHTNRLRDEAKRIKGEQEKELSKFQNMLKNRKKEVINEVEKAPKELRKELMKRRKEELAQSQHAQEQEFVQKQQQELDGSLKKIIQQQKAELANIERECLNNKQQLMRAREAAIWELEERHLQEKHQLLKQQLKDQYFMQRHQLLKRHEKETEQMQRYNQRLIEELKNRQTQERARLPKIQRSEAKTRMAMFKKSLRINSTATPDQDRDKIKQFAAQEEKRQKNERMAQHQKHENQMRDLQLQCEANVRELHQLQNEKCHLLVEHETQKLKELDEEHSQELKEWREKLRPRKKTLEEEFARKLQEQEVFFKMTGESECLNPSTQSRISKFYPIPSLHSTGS
T7 sequence (Q15375 28-998): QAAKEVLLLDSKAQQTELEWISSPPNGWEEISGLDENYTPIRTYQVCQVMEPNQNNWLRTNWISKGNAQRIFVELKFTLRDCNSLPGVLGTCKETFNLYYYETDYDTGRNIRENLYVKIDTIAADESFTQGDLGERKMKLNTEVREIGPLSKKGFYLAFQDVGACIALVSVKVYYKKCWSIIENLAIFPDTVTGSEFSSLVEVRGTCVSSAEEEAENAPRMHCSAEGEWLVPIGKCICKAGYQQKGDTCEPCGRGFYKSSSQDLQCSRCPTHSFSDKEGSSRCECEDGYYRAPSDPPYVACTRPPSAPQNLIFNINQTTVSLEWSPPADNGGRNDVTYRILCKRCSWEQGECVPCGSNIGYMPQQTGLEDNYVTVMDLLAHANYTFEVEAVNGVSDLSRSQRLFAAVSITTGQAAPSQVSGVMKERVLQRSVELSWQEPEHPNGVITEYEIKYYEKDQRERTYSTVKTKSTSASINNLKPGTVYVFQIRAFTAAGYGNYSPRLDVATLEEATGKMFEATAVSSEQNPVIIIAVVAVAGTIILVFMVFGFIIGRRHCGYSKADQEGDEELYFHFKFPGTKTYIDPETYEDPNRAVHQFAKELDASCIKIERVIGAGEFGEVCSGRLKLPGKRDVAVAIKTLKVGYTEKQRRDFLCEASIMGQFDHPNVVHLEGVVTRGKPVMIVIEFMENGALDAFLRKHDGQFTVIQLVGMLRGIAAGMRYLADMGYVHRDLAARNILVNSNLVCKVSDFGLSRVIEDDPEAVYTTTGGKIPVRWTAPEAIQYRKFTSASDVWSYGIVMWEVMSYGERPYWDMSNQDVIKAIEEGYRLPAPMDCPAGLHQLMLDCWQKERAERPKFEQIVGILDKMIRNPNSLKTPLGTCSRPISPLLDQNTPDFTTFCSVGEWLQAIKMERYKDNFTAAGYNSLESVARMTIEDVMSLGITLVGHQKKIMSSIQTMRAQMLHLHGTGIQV

SMILES: C=CC(=O)Nc1cc(-c2cc(-c3cc4c([nH]3)CCNC4=O)ccn2)ccc1OC(F)(F)F [compound 11]
- inhibition at 0.01 µM ([1]; 10 nM): -3%
- inhibition at 0.1 µM ([1]; 100 nM): -2%
- inhibition at 1 µM ([1]; 1000 nM): -2%
- inhibition at 0.01 µM ([2]; 10 nM): 5%
- inhibition at 0.1 µM ([2]; 100 nM): -1%
- inhibition at 1 µM ([2]; 1000 nM): -2%
- inhibition at 0.01 µM ([3]; 10 nM): 1%
- inhibition at 0.1 µM ([3]; 100 nM): 4%
- inhibition at 1 µM ([3]; 1000 nM): 4%
- inhibition at 0.01 µM ([4]; 10 nM): 0%
- inhibition at 0.1 µM ([4]; 100 nM): 10%
- inhibition at 1 µM ([4]; 1000 nM): 43%
- inhibition at 0.01 µM ([5]; 10 nM): -3%
- inhibition at 0.1 µM ([5]; 100 nM): 4%
- inhibition at 1 µM ([5]; 1000 nM): 7%
- inhibition at 0.01 µM ([6]; 10 nM): 13%
- inhibition at 0.1 µM ([6]; 100 nM): 0%
- inhibition at 1 µM ([6]; 1000 nM): -5%
- inhibition at 0.01 µM ([7]; 10 nM): 3%
- inhibition at 0.1 µM ([7]; 100 nM): -3%
- inhibition at 1 µM ([7]; 1000 nM): -11%
- inhibition at 0.01 µM ([8]; 10 nM): -3%
- inhibition at 0.1 µM ([8]; 100 nM): 5%
- inhibition at 1 µM ([8]; 1000 nM): 6%
- inhibition at 0.01 µM ([9]; 10 nM): 51%
- inhibition at 0.1 µM ([9]; 100 nM): 74%
- inhibition at 1 µM ([9]; 1000 nM): 80%
- inhibition at 0.01 µM ([10]; 10 nM): -3%
- inhibition at 0.1 µM ([10]; 100 nM): 0%
- inhibition at 1 µM ([10]; 1000 nM): 11%
